Reference: PubChem BioAssay (NCI)
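Results reflect a 48-hour exposure of cells in 96-well plates to compound at five concentrations. At the TGI there is no net growth.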

Key:
Experiment in all cases: NCI-60 cell line screen, 48 h
786-0 renal = tested on: 786-0 renal
A498 renal = tested on: A498 renal
ACHN renal = tested on: ACHN renal
BT-549 breast = tested on: BT-549 breast
CAKI-1 renal = tested on: CAKI-1 renal
CCRF-CEM leukemia = tested on: CCRF-CEM leukemia
COLO 205 colon = tested on: COLO 205 colon
DU-145 prostate = tested on: DU-145 prostate
EKVX NSCLC = tested on: EKVX NSCLC
HCC-2998 colon = tested on: HCC-2998 colon
HCT-116 colon = tested on: HCT-116 colon
HCT-15 colon = tested on: HCT-15 colon
HL-60(TB) leukemia = tested on: HL-60(TB) leukemia
HOP-62 NSCLC = tested on: HOP-62 NSCLC
HOP-92 NSCLC = tested on: HOP-92 NSCLC
HS 578T breast = tested on: HS 578T breast
HT29 colon = tested on: HT29 colon
IGROV1 ovarian = tested on: IGROV1 ovarian
K-562 leukemia = tested on: K-562 leukemia
KM12 colon = tested on: KM12 colon
LOX IMVI melanoma = tested on: LOX IMVI melanoma
M14 melanoma = tested on: M14 melanoma
MALME-3M melanoma = tested on: MALME-3M melanoma
MCF7 breast = tested on: MCF7 breast
MDA-MB-231 breast = tested on: MDA-MB-231 breast
MDA-MB-435 = tested on: MDA-MB-435
MDA-N = tested on: MDA-N
MOLT-4 leukemia = tested on: MOLT-4 leukemia
NCI-H226 lung = tested on: NCI-H226 lung
NCI-H23 lung = tested on: NCI-H23 lung
NCI-H460 lung = tested on: NCI-H460 lung
NCI-H522 lung = tested on: NCI-H522 lung
NCI/ADR-RES ovarian = tested on: NCI/ADR-RES ovarian
OVCAR-3 ovarian = tested on: OVCAR-3 ovarian
OVCAR-4 ovarian = tested on: OVCAR-4 ovarian
OVCAR-5 ovarian = tested on: OVCAR-5 ovarian
OVCAR-8 ovarian = tested on: OVCAR-8 ovarian
PC-3 prostate = tested on: PC-3 prostate
RPMI-8226 leukemia = tested on: RPMI-8226 leukemia
RXF 393 renal = tested on: RXF 393 renal
SF-268 CNS = tested on: SF-268 CNS
SF-295 CNS = tested on: SF-295 CNS
SF-539 CNS = tested on: SF-539 CNS
SK-MEL-28 melanoma = tested on: SK-MEL-28 melanoma
SK-MEL-5 melanoma = tested on: SK-MEL-5 melanoma
SK-OV-3 ovarian = tested on: SK-OV-3 ovarian
SN12C renal = tested on: SN12C renal
SNB-19 CNS = tested on: SNB-19 CNS
SNB-75 CNS = tested on: SNB-75 CNS
SR leukemia = tested on: SR leukemia
SW-620 colon = tested on: SW-620 colon
T-47D breast = tested on: T-47D breast
U251 CNS = tested on: U251 CNS
UACC-257 melanoma = tested on: UACC-257 melanoma
UACC-62 melanoma = tested on: UACC-62 melanoma
UO-31 renal = tested on: UO-31 renal
A549 NSCLC = tested on: A549 NSCLC
SK-MEL-2 melanoma = tested on: SK-MEL-2 melanoma
TK-10 renal = tested on: TK-10 renal

Measured: TGI

CC1=C(O)C(=O)C(C2=C(O)C(=O)C(C)=C(O)C2=O)=C(O)C1=O
92.1 µM: HOP-92 NSCLC
67.9 µM: SK-MEL-5 melanoma
54 µM: UACC-62 melanoma
46.6 µM: MALME-3M melanoma
not listed: A549 NSCLC | SK-MEL-2 melanoma | TK-10 renal
> 100 µM: all other assays above

CN(C)C1C(=O)C(C(=O)NCN2CCCC2)=C(O)C2(O)C(=O)C3=C(O)c4c(O)cccc4C(C)(O)C3CC12 (centres undefined)
48.7 µM: MALME-3M melanoma
not listed: HCC-2998 colon | NCI-H460 lung | SF-539 CNS
> 100 µM: all other assays above

CCOC(=O)C1C(O)CC2c3ccccc3-c3ccccc3C21 (centres undefined)
60.6 µM: HS 578T breast
75 µM: HOP-92 NSCLC
75.5 µM: U251 CNS
67.1 µM: SNB-75 CNS
68.9 µM: A498 renal
41.4 µM: HCT-116 colon
60.1 µM: NCI-H226 lung
91.2 µM: HOP-62 NSCLC
89 µM: 786-0 renal
45.5 µM: SK-OV-3 ovarian
48.1 µM: OVCAR-8 ovarian
not listed: HCC-2998 colon | SF-539 CNS
> 100 µM: all other assays above
